Reference: ChEMBL document CHEMBL5512623, “Discovery of the novel and potent histamine H1 receptor antagonists for treatment of allergic diseases” (Eur J Med Chem, 2024)

Experiments:
[1] = Subacute toxicity in Sprague-Dawley rat assessed as effect on white blood cell count at 140 mg/kg, IG administered once a day for 14 days; format: organism-based; conditions: in vivo, po, 336 h, time 14 day
[2] = biological target: Voltage-gated inwardly rectifying potassium channel KCNH2 (Homo sapiens, UniProt Q12809); assay: Inhibition of hERG in HEK293 cells measured after 5 mins by patch-clamp assay
Chain of Voltage-gated inwardly rectifying potassium channel KCNH2 (Q12809 whole entry): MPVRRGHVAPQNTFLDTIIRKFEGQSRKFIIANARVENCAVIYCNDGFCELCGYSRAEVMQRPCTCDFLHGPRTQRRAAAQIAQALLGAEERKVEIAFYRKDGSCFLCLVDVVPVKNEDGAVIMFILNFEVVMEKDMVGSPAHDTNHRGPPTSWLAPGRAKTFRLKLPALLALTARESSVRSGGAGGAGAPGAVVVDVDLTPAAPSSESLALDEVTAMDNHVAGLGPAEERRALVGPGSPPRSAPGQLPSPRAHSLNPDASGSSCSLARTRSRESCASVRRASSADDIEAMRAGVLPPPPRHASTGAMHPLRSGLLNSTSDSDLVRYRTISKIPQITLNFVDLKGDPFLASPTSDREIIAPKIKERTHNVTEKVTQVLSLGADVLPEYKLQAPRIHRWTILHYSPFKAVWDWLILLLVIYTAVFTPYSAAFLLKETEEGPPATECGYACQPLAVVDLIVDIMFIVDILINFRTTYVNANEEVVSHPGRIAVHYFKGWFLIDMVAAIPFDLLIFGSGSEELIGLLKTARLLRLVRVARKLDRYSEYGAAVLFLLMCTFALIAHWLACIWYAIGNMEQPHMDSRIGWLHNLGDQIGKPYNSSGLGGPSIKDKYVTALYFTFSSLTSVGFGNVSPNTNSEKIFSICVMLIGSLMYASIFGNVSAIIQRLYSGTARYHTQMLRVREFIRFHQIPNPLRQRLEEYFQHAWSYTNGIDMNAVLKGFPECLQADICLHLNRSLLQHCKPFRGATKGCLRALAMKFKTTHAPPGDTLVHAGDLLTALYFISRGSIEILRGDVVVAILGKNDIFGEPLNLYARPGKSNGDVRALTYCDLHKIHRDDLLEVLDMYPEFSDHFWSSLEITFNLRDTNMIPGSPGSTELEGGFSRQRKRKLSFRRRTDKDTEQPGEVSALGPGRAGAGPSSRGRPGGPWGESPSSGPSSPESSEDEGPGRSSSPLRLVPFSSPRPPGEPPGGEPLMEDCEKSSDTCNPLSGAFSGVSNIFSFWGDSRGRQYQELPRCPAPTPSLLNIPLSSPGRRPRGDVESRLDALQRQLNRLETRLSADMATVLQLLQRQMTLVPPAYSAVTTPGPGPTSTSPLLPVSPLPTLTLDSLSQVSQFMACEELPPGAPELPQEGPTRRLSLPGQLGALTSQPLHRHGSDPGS

[3] = Acute toxicity in Sprague-Dawley rat assessed as weight loss at 700 mg/kg, IG measured for 7 days; format: organism-based; conditions: in vivo, po, 168 h, time 7 day
[4] = AUC (0 to t) in male Sprague-Dawley rat at 4 mg/kg, iv administered via tail vein and measured upto 24 hrs by LC-MS/MS analysis; format: ADME, organism-based; conditions: in vivo
[5] = AUC (0 to t) in male Sprague-Dawley rat at 25 mg/kg, po measured upto 24 hrs by LC-MS/MS analysis; format: ADME, organism-based; conditions: in vivo
[6] = Apparent permeability across apical to basolateral side in human Caco-2 cells at 5 uM measured at 60 mins; format: ADME, cell-based
[7] = Oral bioavailability in male Sprague-Dawley rat at 25 mg/kg measured upto 24 hrs by LC-MS/MS analysis; format: ADME, organism-based; conditions: in vivo
[8] = Subacute toxicity in Sprague-Dawley rat assessed as effect on ECG at 140 mg/kg, IG administered once a day for 14 days; format: organism-based; conditions: in vivo, po, 336 h, time 14 day
[9] = Subacute toxicity in Sprague-Dawley rat assessed as lethargy at 140 mg/kg, IG administered once a day for 14 days; format: organism-based; conditions: in vivo, po, 336 h, time 14 day
[10] = Cmax in female Sprague-Dawley rat plasma at 10 mg/kg, IG administered as single dose; format: ADME, organism-based; conditions: po
[11] = MRT (0 to infinity) in male Sprague-Dawley rat at 25 mg/kg, po measured upto 24 hrs by LC-MS/MS analysis; format: ADME, organism-based; conditions: in vivo
[12] = Cmax in male Sprague-Dawley rat brain at 10 mg/kg, IG administered as single dose; format: ADME, organism-based; conditions: po
[13] = Plasma protein binding in rat assessed as binding rate at 1200 ng/ml prewarmed for 30 mins by LC-MS/MS analysis; format: ADME, cell-free; conditions: read-out: PPB (converted)
[14] = Acute toxicity in IG dosed Sprague-Dawley rat assessed as minimum lethal dose measured for 7 days; format: organism-based; conditions: in vivo, po, 168 h, time 7 day
[15] = Metabolic stability in mouse liver microsomes assessed as half life at 1 uM measured upto 120 mins by LC-MS/MS analysis; format: ADME, Microsome
[16] = Cmax in male Sprague-Dawley rat at 25 mg/kg, po measured upto 24 hrs by LC-MS/MS analysis; format: ADME, organism-based; conditions: in vivo
[17] = Clearance in male Sprague-Dawley rat at 4 mg/kg, iv administered via tail vein and measured upto 24 hrs by LC-MS/MS analysis; format: ADME, organism-based; conditions: in vivo
[18] = Plasma protein binding in rat assessed as binding rate at 500 ng/ml prewarmed for 30 mins by LC-MS/MS analysis; format: ADME, cell-free; conditions: read-out: PPB (converted)
[19] = Plasma protein binding in human assessed as binding rate at 1000 ng/ml prewarmed for 30 mins by LC-MS/MS analysis; format: ADME, cell-free; conditions: read-out: PPB (converted)
[20] = MRT (0 to infinity) in male Sprague-Dawley rat at 4 mg/kg, iv administered via tail vein and measured upto 24 hrs by LC-MS/MS analysis; format: ADME, organism-based; conditions: in vivo
[21] = Volume of distribution in male Sprague-Dawley rat at 4 mg/kg, iv administered via tail vein and measured upto 24 hrs by LC-MS/MS analysis; format: ADME, organism-based; conditions: in vivo
[22] = Plasma protein binding in rat assessed as binding rate at 1000 ng/ml prewarmed for 30 mins by LC-MS/MS analysis; format: ADME, cell-free; conditions: read-out: PPB (converted)
[23] = Subacute toxicity in Sprague-Dawley rat assessed as abnormal symptoms at 50 mg/kg, IG administered once a day for 14 days; format: organism-based; conditions: in vivo, po, 336 h, time 14 day
[24] = Subacute toxicity in Sprague-Dawley rat assessed as ptosis at 140 mg/kg, IG administered once a day for 14 days; format: organism-based; conditions: in vivo, po, 336 h, time 14 day
[25] = AUC (0 to infinity) in male Sprague-Dawley rat at 25 mg/kg, po measured upto 24 hrs by LC-MS/MS analysis; format: ADME, organism-based; conditions: in vivo
Cytochrome P450 1A2 = biological target: T1, Cytochrome P450 1A2 (Mus musculus, UniProt P00186); assay: Inhibition of mouse CYP1A2 at 0.01 to 50 uM measured after 30 mins by LC-MS/MS analysis; format: ADME; conditions: 0.5 h, dose 0.01-50 µM
T1 sequence (P00186 whole entry): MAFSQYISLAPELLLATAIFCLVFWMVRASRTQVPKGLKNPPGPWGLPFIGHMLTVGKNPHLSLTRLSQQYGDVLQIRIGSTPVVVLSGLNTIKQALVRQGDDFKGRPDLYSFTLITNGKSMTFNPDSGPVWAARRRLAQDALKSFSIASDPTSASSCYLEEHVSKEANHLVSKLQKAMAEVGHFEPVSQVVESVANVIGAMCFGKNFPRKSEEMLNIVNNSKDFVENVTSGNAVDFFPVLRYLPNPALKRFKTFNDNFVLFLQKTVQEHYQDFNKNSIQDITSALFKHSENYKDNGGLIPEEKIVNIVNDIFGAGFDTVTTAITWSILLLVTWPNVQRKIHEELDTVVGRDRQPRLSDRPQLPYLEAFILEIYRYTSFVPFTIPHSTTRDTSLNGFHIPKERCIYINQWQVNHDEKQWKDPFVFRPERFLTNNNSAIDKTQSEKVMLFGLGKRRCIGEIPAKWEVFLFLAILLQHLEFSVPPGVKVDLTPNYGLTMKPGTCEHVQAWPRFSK

[26] = Plasma protein binding in human assessed as binding rate at 500 ng/ml prewarmed for 30 mins by LC-MS/MS analysis; format: ADME, cell-free; conditions: read-out: PPB (converted)
[27] = Clearance in male Sprague-Dawley rat at 25 mg/kg, po measured upto 24 hrs by LC-MS/MS analysis; format: ADME, organism-based; conditions: in vivo
[28] = Half life in male Sprague-Dawley rat at 25 mg/kg, po measured upto 24 hrs by LC-MS/MS analysis; format: ADME, organism-based; conditions: in vivo
[29] = Cmax in female Sprague-Dawley rat brain at 10 mg/kg, IG administered as single dose; format: ADME, organism-based; conditions: po
[30] = Metabolic stability in Beagle dog liver microsomes at 1 uM measured upto 120 mins by LC-MS/MS analysis; format: ADME, Canis lupus familiaris, Microsome; conditions: 2 h
[31] = biological target: Muscarinic acetylcholine receptor M3 (Homo sapiens, UniProt P20309); assay: Antagonist activity at human muscarinic M3 receptor expressed in PathHunter U2OS CHRM3 beta-arrestin cells preincubated for 30 mins followed by agonist addition at 6 times EC80 and measured after 90 to 180 mins by PathHunter assay; format: functional, cell-based
Chain of Muscarinic acetylcholine receptor M3 (P20309 whole entry): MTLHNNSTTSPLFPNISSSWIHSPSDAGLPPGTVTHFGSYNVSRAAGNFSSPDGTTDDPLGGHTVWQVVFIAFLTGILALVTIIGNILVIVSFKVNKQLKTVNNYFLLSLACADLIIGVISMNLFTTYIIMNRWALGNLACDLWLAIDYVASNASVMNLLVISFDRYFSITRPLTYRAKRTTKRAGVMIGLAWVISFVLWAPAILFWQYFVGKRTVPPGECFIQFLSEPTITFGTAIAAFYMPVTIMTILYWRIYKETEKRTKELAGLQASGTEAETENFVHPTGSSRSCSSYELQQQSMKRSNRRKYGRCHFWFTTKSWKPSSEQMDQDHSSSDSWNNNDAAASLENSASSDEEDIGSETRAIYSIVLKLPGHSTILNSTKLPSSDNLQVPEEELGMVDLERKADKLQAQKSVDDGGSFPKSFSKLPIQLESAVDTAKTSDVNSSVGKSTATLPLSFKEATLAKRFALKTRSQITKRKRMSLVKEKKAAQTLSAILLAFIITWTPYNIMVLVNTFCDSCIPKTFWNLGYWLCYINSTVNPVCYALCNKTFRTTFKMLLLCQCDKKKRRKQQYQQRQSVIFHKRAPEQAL

[32] = Plasma protein binding in human assessed as binding rate at 250 ng/ml prewarmed for 30 mins by LC-MS/MS analysis; format: ADME, cell-free; conditions: read-out: PPB (converted)
[33] = AUC (0 to infinity) in male Sprague-Dawley rat at 4 mg/kg, iv administered via tail vein and measured upto 24 hrs by LC-MS/MS analysis; format: ADME, organism-based; conditions: in vivo
[34] = Acute toxicity in Sprague-Dawley rat assessed as lethargy at 700 mg/kg, IG measured for 7 days; format: organism-based; conditions: in vivo, po, 168 h, time 7 day
[35] = Tmax in male Sprague-Dawley rat at 25 mg/kg, po measured upto 24 hrs by LC-MS/MS analysis; format: ADME, organism-based; conditions: in vivo
[36] = Acute toxicity in Sprague-Dawley rat assessed as reduction in animal activity at 700 mg/kg, IG measured for 7 days; format: organism-based; conditions: in vivo, po, 168 h, time 7 day

In the case of `CC(C)(C(=O)O)c1cccc(CCCN2CCC(=C3c4ccc(Cl)cc4CCc4cccnc43)CC2)c1`, the Activity [1] is reported as “Non-Toxic”, the IC50 [2] is reported as 17.6 µM and the Activity [3] is reported as “Toxic”. The AUC(0-t) at 24 h [4] was 1680 ng·h/mL, the AUC(0-t) at 24 h [5] was 6250 ng·h/mL and the Papp A→B at 1 h, 5 µM [6] was 5.82 ×10⁻⁶ cm/s. The bioavailability [7] was 59.5%, the Activity [8] was “Non-Toxic” and the Activity [9] was “Toxic”. For the same compound, the Cmax [10] was 1930 ng/g, the MRT inf [11] was 6.01 h and the Cmax [12] was 15.8 ng/g. The fraction unbound at 0.5 h, 1200 ng/ml [13] was 0.302, the MLD [14] was 350 mg/kg and the half-life at 1 µM [15] was 1.44 h. For the same compound, the Cmax [16] was 1720 ng/mL, the clearance [17] was 37 mL/min/kg and the fraction unbound at 0.5 h, 500 ng/ml [18] was 0.34. For the same compound, the fraction unbound at 0.5 h, 1000 ng/ml [19] was 0.321, the MRT inf [20] was 0.7 h and the Vd [21] was 1.77 L/kg. The fraction unbound at 0.5 h, 1000 ng/ml [22] was 0.327, the Activity [23] was “Non-Toxic” and the Activity [24] was “Toxic”. For the same compound, the AUC(0-inf) [25] was 7210 ng·h/mL, the “inhibition (INH)” value (Cytochrome P450 1A2) was “Not Active” and the fraction unbound at 0.5 h, 500 ng/ml [26] was 0.321. The CL/F [27] was 59.4 mL/min/kg, the half-life [28] was 4.05 h and the Cmax [29] was 126 ng/g. The Stability [30] was “Stable”, the IC50 [31] was over 10 µM and the fraction unbound at 0.5 h, 250 ng/ml [32] was 0.347. The AUC(0-inf) [33] was 1820 ng·h/mL, the Activity [34] was “Toxic” and the Tmax [35] was 0.38 h. The Activity [36] was “Toxic”.
